Data from article PMC2374539, “Anti-tumour effects and pharmacokinetic profile of 17-(5′ -isoxazolyl)androsta-4,16-dien-3-one (L-39) in mice: an inhibitor of androgen synthesis” (British Journal of Cancer, 2000).
“And” between values parts separate entries of the source, which are not always exact repeats. Equal entries are not always repeated. “Also recorded” adds a separate entry of the source.

Assays:
[1] = tested on: LNCaP human prostatic cells grown as tumours; set-up: method as in Long et al, 1999; conditions: ref Long et al, 1999; cited from earlier work
[2] = target: T1, human testicular microsomal 17α-hydroxylase/C17,20-lyase (Homo sapiens, UniProt P05093); test: Inhibition of 17α-hydroxylase/C17,20-lyase activity in human testicular microsomes ([3H]-acetic acid release); format: biochemical
T1 construct: Testicular and prostatic microsomes were prepared as described previously; from tissue; host or cells: human testis, microsomal fraction
T1 sequence (P05093 1-508): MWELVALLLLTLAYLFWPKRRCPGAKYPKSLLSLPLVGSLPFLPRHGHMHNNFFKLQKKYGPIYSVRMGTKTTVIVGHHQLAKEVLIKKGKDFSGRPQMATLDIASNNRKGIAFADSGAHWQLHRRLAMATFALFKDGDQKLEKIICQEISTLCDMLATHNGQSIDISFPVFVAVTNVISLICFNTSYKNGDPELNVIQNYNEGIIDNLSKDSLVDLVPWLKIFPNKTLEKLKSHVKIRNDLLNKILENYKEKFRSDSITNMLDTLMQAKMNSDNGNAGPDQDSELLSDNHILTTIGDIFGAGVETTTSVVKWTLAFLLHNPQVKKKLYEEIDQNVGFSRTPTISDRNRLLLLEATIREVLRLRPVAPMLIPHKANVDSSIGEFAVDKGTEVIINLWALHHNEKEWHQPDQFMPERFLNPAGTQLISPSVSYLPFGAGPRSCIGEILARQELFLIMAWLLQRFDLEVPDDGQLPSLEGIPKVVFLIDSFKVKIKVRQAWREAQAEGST
Excerpt: (§1) Prostate cancer is second only to lung cancer as the leading cause of death and is the most prevalent cancer amongst men in the USA and Europe and accounts for about a third of all cancers diagnosed each year in men. In the UK, the incidence of prostate cancer has almost doubled over the last 30 years. Similarly, in 1998, it was estimated that more than 334 500 cases were diagnosed and more than 41 800 men died of the disease in the USA (Dijkman and Debruyne, 1996). The prostate gland is under the influence of androgens and often becomes enlarged in older men. […] Localized prostate cancer is curable and although the metastatic form of the disease is difficult to manage, endocrine therapy does reduce the death rate from the disease and is first-line treatment for all patients. In the testis and adrenals, 17-hydroxylase/C17,20 -lyase converts the C21 steroid precursors to the corresponding C19 andro- gens. […] Both T and DHT stimu- late prostatic growth, although DHT plays a much more important role than T in the organogenesis and homeostasis of the prostate (Wilson, 1996). Current endocrine therapies such as orchidectomy and luteinizing hormone releasing hormone (LHRH) agonists result in reduced androgen production by the testis and are useful in the early stages of prostate cancer. However, these treatment options fail to alter androgen production by the adrenals that may contribute androgen precursors to the prostate. The addition of flutamide, an anti-androgen to inhibit the action of androgens on the prostate, is only partially effective as the disease frequently progresses due to mutations in the androgen receptor, which can utilize flutamide as an agonist. […] Androgen- dependent human prostate cancer xenografts (PC-82) were grown in nude mice and the effects of L-39 (50 mg kg-1 day-1 ) on tumour growth and prostate-specific antigen (PSA) levels were determined after 28 days. […] We also evaluated the pharmacokinetic properties of L-39 in male mice in this investigation. […]

[3] = Solubility in water; format: physicochemical
[4] = tested on: prostate-specific antigen (PSA) levels; test: PSA ELISA in serum and PC-82 tumours of treated mice; format: in vivo, male athymic Ncr-nu mice; conditions: 50 mg kg-1 day-1, s.c., 28 days, P < 0.01
Excerpt: as §1, with “1996).” for “1996). Current endocrine therapies such as orchidectomy and luteinizing hormone releasing hormone (LHRH) agonists result in reduced androgen production by the testis and are useful in the early stages of prostate cancer. However, these treatment options fail to alter androgen production by the adrenals that may contribute androgen precursors to the prostate. The addition of flutamide, an anti-androgen to inhibit the action of androgens on the prostate, is only partially effective as the disease frequently progresses due to mutations in the androgen receptor, which can utilize flutamide as an agonist.”

[5] = tested on: T and DHT concentrations; test: Testosterone and DHT RIA in serum and PC-82 tumours of treated mice; format: in vivo, male athymic Ncr-nu mice; conditions: 50 mg kg-1 day-1, s.c., 28 days, P < 0.05
Excerpt: as §1, with “1996).” for “1996). Current endocrine therapies such as orchidectomy and luteinizing hormone releasing hormone (LHRH) agonists result in reduced androgen production by the testis and are useful in the early stages of prostate cancer. However, these treatment options fail to alter androgen production by the adrenals that may contribute androgen precursors to the prostate. The addition of flutamide, an anti-androgen to inhibit the action of androgens on the prostate, is only partially effective as the disease frequently progresses due to mutations in the androgen receptor, which can utilize flutamide as an agonist.”

[6] = Gross examination of vital organs, organ and body weights after treatment; format: in vivo, male athymic Ncr-nu mice; conditions: 50 mg kg-1 daily, s.c., 28 days
Excerpt: as §1, with “1996).” for “1996). Current endocrine therapies such as orchidectomy and luteinizing hormone releasing hormone (LHRH) agonists result in reduced androgen production by the testis and are useful in the early stages of prostate cancer. However, these treatment options fail to alter androgen production by the adrenals that may contribute androgen precursors to the prostate. The addition of flutamide, an anti-androgen to inhibit the action of androgens on the prostate, is only partially effective as the disease frequently progresses due to mutations in the androgen receptor, which can utilize flutamide as an agonist.”

[7] = target: T2, 5α-reductase in human prostatic microsomes (Homo sapiens, UniProt P31213); test: 5α-Reductase assay in human prostatic (BPH) microsomes; format: biochemical
T2 sequence (P31213 1-254): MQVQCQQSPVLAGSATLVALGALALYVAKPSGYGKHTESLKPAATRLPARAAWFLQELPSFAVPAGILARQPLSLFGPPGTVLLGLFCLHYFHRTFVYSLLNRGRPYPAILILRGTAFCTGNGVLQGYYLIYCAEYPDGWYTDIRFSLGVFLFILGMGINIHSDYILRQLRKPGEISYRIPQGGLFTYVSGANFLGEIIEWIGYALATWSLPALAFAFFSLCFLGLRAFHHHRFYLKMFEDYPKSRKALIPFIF
Excerpt: as §1

[8] = tested on: PC-82 human prostate cancer xenografts; test: Human PC-82 prostate cancer xenograft model: tumour volume and weight; format: in vivo, male athymic Ncr-nu mice
Excerpt: as §1

[9] = tested on: androgen receptors; set-up: method as in Long et al, 1999; conditions: L-39 5 μM, R1881 5 nM, LNCaP cultures; ref Long et al, 1999; cited from earlier work
[10] = Pharmacokinetic studies after a single s.c. or i.v. bolus dose, plasma HPLC; format: in vivo, male Balb/c mice; set-up: AUC0- / Cmax: unit not given here
Excerpt: Prostate cancer is second only to lung cancer as the leading cause of death and is the most prevalent cancer amongst men in the USA and Europe and accounts for about a third of all cancers diagnosed each year in men. In the UK, the incidence of prostate cancer has almost doubled over the last 30 years. Similarly, in 1998, it was estimated that more than 334 500 cases were diagnosed and more than 41 800 men died of the disease in the USA (Dijkman and Debruyne, 1996). The prostate gland is under the influence of androgens and often becomes enlarged in older men. […] Localized prostate cancer is curable and although the metastatic form of the disease is difficult to manage, endocrine therapy does reduce the death rate from the disease and is first-line treatment for all patients. In the testis and adrenals, 17-hydroxylase/C17,20 -lyase converts the C21 steroid precursors to the corresponding C19 andro- gens. […] Both T and DHT stimu- late prostatic growth, although DHT plays a much more important role than T in the organogenesis and homeostasis of the prostate (Wilson, 1996). Current endocrine therapies such as orchidectomy and luteinizing hormone releasing hormone (LHRH) agonists result in reduced androgen production by the testis and are useful in the early stages of prostate cancer. However, these treatment options fail to alter androgen production by the adrenals that may contribute androgen precursors to the prostate. The addition of flutamide, an anti-androgen to inhibit the action of androgens on the prostate, is only partially effective as the disease frequently progresses due to mutations in the androgen receptor, which can utilize flutamide as an agonist. […] This may be achieved through dual inhibition of 17- hydroxylase/C17,20 -lyase and 5-reductase (Li et al, 1992; Klus et al, 1996). […] Androgen- dependent human prostate cancer xenografts (PC-82) were grown in nude mice and the effects of L-39 (50 mg kg-1 day-1 ) on tumour growth and prostate-specific antigen (PSA) levels were determined after 28 days. […] Pharmacokinetic studies were also conducted in male Balb/c mice. […] (c) 2000 Cancer Research Campaign Keywords: 17-hydroxylase/C17,20 -lyase; 5-reductase; androgens; prostate cancer; pharmacokinetics 74 Received 9 November 1999 Revised 4 February 2000 Accepted 10 February 2000 Correspondence to: AM Brodie British Journal of Cancer (2000) 83(1), 74-82 (c) 2000 Cancer Research Campaign doi: 10.1054/ bjoc.2000.1136, available online at http://www.idealibrary.com on *Present address: Department of Pharmaceutical Sciences, Temple University School of Pharmacy, Philadelphia, PA 19140, USA. Present address: School of Pharmaceutical Sciences, Beijing Medical University, China. Effects of L-39 in vitro and in vivo 75 British Journal of Cancer (2000) 83(1), 74-82 (c) 2000 Cancer Research Campaign advanced prostate cancer (Small et al, 1997). […] 5-Reductase occurs in two isoforms namely, type I and type II. The type II isoenzyme is the predominant form in the human prostate. […] In the present investigation, we describe the effects of L-39, a novel androstene derivative, in vitro and on human prostate cancer xenografts in nude mice. We also evaluated the pharmacokinetic properties of L-39 in male mice in this investigation. […] [21-3 H]-17-hydroxy- pregnenolone ([…] ) was prepared in our laboratory as previously described (Njar et al, 1998). [1,2,6,7-3 H]- Testosterone (96.5 Ci mmol-1 ) and [4-14 C]-dihydrotestosterone (56.5 mCi mmol-1 ) were obtained from Dupont (Boston, MA, USA).

[11] = tested on: LNCaP human prostate cancer cells; set-up: method as in Long et al, 1999; conditions: ref Long et al, 1999; cited from earlier work
[12] = target: T1, human testicular microsomal 17α-hydroxylase/C17,20-lyase; set-up: method as in Nnane et al, 1998; conditions: ref Nnane et al, 1998; cited from earlier work
[13] = intravenous 50 mg kg-1, single bolus, mouse plasma
[14] = subcutaneous 50 mg kg-1, single bolus, mouse plasma
[15] = subcutaneous 100 mg kg-1, single bolus, mouse plasma

Structure (SMILES): C[C@]12CCC(=O)C=C1CC[C@@H]1[C@@H]2CC[C@]2(C)C(c3ccno3)=CC[C@@H]12 [L-39, 17-(5′-Isoxazolyl)androsta-4,16-dien-3-one]
- growth of LNCaP tumours in male SCID mice [1]: effective at slowing LNCaP human prostatic cells grown in male SCID mice as tumours; also recorded: more effective than flutamide
- type of inhibition of 17α-hydroxylase/C17,20-lyase [2]: non-competitive
- Ki ([2]; Lineweaver-Burke slopes): 22 nM
- IC50 ([2]; substrate 17-hydroxypregnenolone, 1 h, pH 7.4): 59 nM
- solubility in water [3]: poorly soluble in water
- reduction of tumour PSA levels [4]: 50%
- reduction of DHT concentration in PC-82 tumour xenografts [5]: 94%
- reduction of T concentration in PC-82 tumour xenografts [5]: 64%
- gross examination of liver, kidney, heart and adrenal gland [6]: did not reveal toxicity
- weight of vital organs and body weight [6]: did not change significantly
- type of inhibition of 5α-reductase [7]: competitive
- Ki ([7]; Lineweaver-Burke slopes, read-out: Ki, inhibition of 5α-reductase): 28 nM
- IC50 ([7]; T 40 nM, 10 min, pH 7.4, read-out: IC50, inhibition of 5α-reductase): 33 nM
- diminution of PC-82 tumour weights ([8]; 50 mg kg-1 daily, s.c., 28 days, vs control): 70%
- increase in tumour volume over 28 days ([8]; 50 mg kg-1 daily, s.c., control increased twofold): 1.25 fold
- potency in reducing growth of PC-82 tumour xenografts, compared with other therapies ([8]; 50 mg kg-1 day-1, s.c., 28 days): to a similar extent as castration or flutamide treatment
- anti-androgenic activity: binding of labelled R1881 to androgen receptors [9]: preventing the labelled synthetic androgen R1881 (5 n M) from binding to the androgen receptors
- metabolism in mice ([10]; initial observations, metabolite not characterized): metabolized to a more polar metabolite
- time after intravenous administration at which L-39 was not detectable in plasma ([10]; intravenous 50 mg kg-1): 4 h
- AUC0- [10, 13]: 14.41
- CI (total clearance) [10, 13]: 3.47 0.14 l h-1 kg-1 and 3.5 l h-1 kg-1
- Kel (terminal elimination rate constant) [10, 13]: 1.05 0.05 h-1 and 1.052 h-1
- MTR [10, 13]: 1.15 h
- T1/2 [10, 13]: 0.66 h
- Vd [10, 13]: 3.30 0.13 l kg-1
- AUC0- [10, 14]: 4.09
- CI (total clearance) [10, 14]: 12.24 0.48 l h-1 kg-1
- Cmax [10, 14]: 1.42
- Kel [10, 14]: 0.46 0.02 h-1
- MTR [10, 14]: 2.52 h
- T1/2 [10, 14]: 1.51 h
- Tmax [10, 14]: 0.75 h
- Vd [10, 14]: 26.73 1.04 l kg-1
- AUC0- [10, 15]: 4.04
- CI (total clearance) [10, 15]: 24.78 1.0 l h-1 kg-1
- Cmax [10, 15]: 1.30
- Kel [10, 15]: 0.53 0.03 h-1
- MTR [10, 15]: 2.41 h
- T1/2 [10, 15]: 1.31 h
- Tmax [10, 15]: 1.0 h
- Vd [10, 15]: 46.80 1.84 l kg-1
- proliferation of LNCaP cells in culture [11]: inhibits proliferation

Structure (SMILES): CC(C)(C)NC(=O)[C@H]1CC[C@H]2[C@@H]3CC[C@H]4NC(=O)C=C[C@]4(C)[C@H]3CC[C@]12C [finasteride]
- activity against 17-hydroxylase/C17,20-lyase [12]: no activity
